Here are results for 10 compounds from PubChem BioAssay (NCI).

Where “and” joins values, the source holds several entries; their conditions need not be identical. Identical values can stand only once.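 Cultured in 96-well plates, cells were exposed to test compound for 48 hours across five concentrations. The concentration for 50% growth inhibition is given as GI50. TGI is the concentration that stops growth completely.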 Starred links: 1 amine or outer side, 2 acyl side, 3 side chain; linkers in the order of their positions; H or OH if unused. Positions of bridges follow the written chain, without caps; N, C: chain ends. Non-standard residues stand in square brackets, D forms with d. Residues, ends and D or L forms follow the SMILES beside them. Chains are numbered I, II in the order given. Actinocin(1to9) = Cc1c2oc3c(C)ccc(C(=O)[*:2])c3nc-2c(C(=O)[*:1])c(N)c1=O; NMeV = CN[CH](C(=O)O)C(C)C; Sar = CNCC(=O)O

Some test systems named below: SK-MEL-5 melanoma; OVCAR-5 ovarian; SNB-19 CNS; EKVX NSCLC; HCT-116 colon; NCI-H460 lung; UO-31 renal; OVCAR-3 ovarian; CCRF-CEM leukemia; K-562 leukemia.
What all share (test): inhibition of tumour cell growth, NCI panel, 48 h

Take `COCC1CCCN1c1ccc(C=N/C(C#N)=C(\N)C#N)cc1` (stereo not drawn): the GI50 in the experiment on SK-MEL-5 melanoma is 98.2 µM; with OVCAR-5 ovarian, over 100 µM; with SNB-19 CNS, 36.7 µM; in the experiment with EKVX NSCLC, over 100 µM; in the experiment on HCT-116 colon, 9.19 µM; in the experiment on NCI-H460 lung it was over 100 µM. In addition, the results for the GI50 in the experiment with UO-31 renal, in the experiment with OVCAR-3 ovarian and in the experiment with CCRF-CEM leukemia were 4.98 µM, 46.1 µM and 3.22 µM, respectively. Also, the TGI in the experiment on SK-MEL-5 melanoma, in the experiment on OVCAR-5 ovarian, with SNB-19 CNS, in the experiment on EKVX NSCLC, with HCT-116 colon and in the experiment on NCI-H460 lung was over 100 µM throughout. In addition, the TGI in the experiment on UO-31 renal, in the experiment with OVCAR-3 ovarian and with CCRF-CEM leukemia was over 100 µM each time.

As for `CCOC(=O)C(/C(=N/S(=O)(=O)c1cc(C)c(Cl)cc1[S-])[n+]1ccc(N(C)C)cc1)=C(/O)c1ccc([N+](=O)[O-])cc1`, the TGI in the experiment on SK-MEL-5 melanoma was over 100 µM; in the experiment with OVCAR-5 ovarian, over 100 µM; in the experiment with HCT-116 colon, 36.7 µM; with NCI-H460 lung it was over 100 µM; in the experiment with UO-31 renal, over 100 µM; in the experiment with OVCAR-3 ovarian, over 100 µM. Besides, the TGI was over 100 µM in the experiment on K-562 leukemia and 87.2 µM with CCRF-CEM leukemia.

Turning to `COCCNCc1ccc(-c2cc3nccc(Oc4ccc(NC(=S)NC(=O)Cc5ccc(F)cc5)cc4F)c3s2)nc1`, the GI50 in the experiment with OVCAR-5 ovarian was 3.05 µM; in the experiment on EKVX NSCLC it was 2.5 µM; in the experiment with OVCAR-3 ovarian it was 1.93 µM. The TGI in the experiment with OVCAR-5 ovarian worked out at 13.6 µM; in the experiment on EKVX NSCLC, 6.96 µM; in the experiment with OVCAR-3 ovarian it was 3.52 µM.

`CCC(C)C1NC(=O)C(NC(=O)c2c3nc4c(C(=O)NC5C(=O)NC(C(C)CC)C(=O)N6CCCC6C(=O)N(C)CC(=O)N(C)C(C(C)C)C(=O)OC5C)ccc(C)c4oc-3c(C)c(=O)c2N)C(C)OC(=O)C(C(C)C)N(C)C(=O)CN(C)C(=O)C2CCCN2C1=O` (stereo not drawn) (I: TIP[Sar][NMeV] / II: TIP[Sar][NMeV]; ester I:1-I:C, II:1-II:C; linker I:N-II:N via Actinocin(1to9); configuration not given here): the TGI with SK-MEL-5 melanoma is 0.018 µM; with OVCAR-5 ovarian, 0.0273 µM and 0.0172 µM; in the experiment with SNB-19 CNS, 0.0111 µM; with EKVX NSCLC it was 0.248 µM and 0.0692 µM; in the experiment on UO-31 renal, 0.143 µM and 0.316 µM; in the experiment on OVCAR-3 ovarian, 0.0389 µM. The TGI in the experiment with K-562 leukemia is 0.0109 µM and 0.0132 µM; with CCRF-CEM leukemia, 0.0106 µM.

As for `C[N+]1(CCC(=O)c2ccco2)CC2CCC(CC2)C1` (stereo not drawn), the TGI with SK-MEL-5 melanoma, in the experiment on OVCAR-5 ovarian, in the experiment on SNB-19 CNS, in the experiment on EKVX NSCLC, with HCT-116 colon and with NCI-H460 lung was over 100 µM throughout. The TGI in the experiment with UO-31 renal, in the experiment on OVCAR-3 ovarian and with K-562 leukemia was over 100 µM each time.

For `OC(c1ccccc1)(c1ccccc1)c1nccc2ccccc12`, the TGI in the experiment with SK-MEL-5 melanoma is 27 µM; in the experiment on OVCAR-5 ovarian it was over 100 µM; with SNB-19 CNS it was over 100 µM; with EKVX NSCLC, 83.5 µM; in the experiment with HCT-116 colon, 97 µM; with NCI-H460 lung, 43.7 µM. The TGI in the experiment with UO-31 renal was over 100 µM; in the experiment on OVCAR-3 ovarian, 52.5 µM; with CCRF-CEM leukemia, 95.5 µM.

Regarding `OCc1cn(C(c2ccccc2)(c2ccccc2)c2ccccc2)cn1`, the TGI in the experiment with SK-MEL-5 melanoma, in the experiment on OVCAR-5 ovarian, with SNB-19 CNS, in the experiment with HCT-116 colon, in the experiment with NCI-H460 lung and in the experiment on UO-31 renal was over 100 µM throughout. The TGI in the experiment with OVCAR-3 ovarian, with K-562 leukemia and in the experiment on CCRF-CEM leukemia was over 100 µM in each case.

Turning to `COc1ccc(C(=O)C2=NON3OC23C(=O)c2ccc(OC)cc2)cc1` (stereo not drawn), the TGI is 29.3 µM with SK-MEL-5 melanoma; 36.7 µM in the experiment on OVCAR-5 ovarian; 33.7 µM with SNB-19 CNS; 34.1 µM with EKVX NSCLC; 19.6 µM with HCT-116 colon; 40 µM in the experiment on NCI-H460 lung. Also, the figures for the TGI in the experiment with UO-31 renal, with OVCAR-3 ovarian and in the experiment on K-562 leukemia were 28 µM, 23.3 µM and 8.29 µM, respectively.

As to `CC(=O)OC1CC[C@@]2(C)C(=CC[C@@H]3[C@@H]2CC[C@]2(C)Nc4nn(S(C)(=O)=O)cc4C[C@@H]32)C1` (stereo partly drawn), the TGI with SK-MEL-5 melanoma was 28.4 µM; in the experiment with OVCAR-5 ovarian, over 100 µM; in the experiment with SNB-19 CNS it was over 100 µM; in the experiment on NCI-H460 lung, 72.5 µM; in the experiment on UO-31 renal, over 100 µM; with OVCAR-3 ovarian it was 57.8 µM. For the same compound, the TGI in the experiment with K-562 leukemia is over 100 µM; in the experiment with CCRF-CEM leukemia, 38.5 µM.

In the case of `c1ccc(-c2nnn3c2NC2=C(CCCC2)C3c2ccccc2)cc1` (stereo not drawn), the TGI with SK-MEL-5 melanoma is 30.1 µM; in the experiment on OVCAR-5 ovarian, 36.9 µM; with SNB-19 CNS, over 100 µM; in the experiment on HCT-116 colon, 24.3 µM; in the experiment on NCI-H460 lung, 52.8 µM; with UO-31 renal, 34.1 µM. The TGI in the experiment with OVCAR-3 ovarian was determined as 37.7 µM; in the experiment with K-562 leukemia it was 29.2 µM; in the experiment with CCRF-CEM leukemia it was 31.1 µM.
